In paper PMC11949107, “Polyunsaturated fatty acids and their endocannabinoid-related metabolites activity at human TRPV1 and TRPA1 ion channels expressed in HEK-293 cells” (PeerJ, 2025):
Values joined by “and” are separate entries in the source; they are usually repeats but may differ in a detail not shown here. Equal values may be shown once. Read-outs that look alike come from different tables or passages of the source. Values belong to the molecule of their own block, whether it stands above or below them.

Key:
human TRPV1 [1] = target: T1, human TRPV1 (Homo sapiens, UniProt Q8NER1); test: PMA (phorbol ester) potentiation of TRPV1 responses in HEK-293 TRPV1 cells; format: cell-based; parameters: key to Drugs alone, individual experiments: change in [Ca]i as % of pre-drug baseline
T1 construct: Life Technologies (cells); host or cells: Flp-In T-REx HEK-293
Protocol: (§1) Intracellular calcium [Ca]i levels were assessed using the calcium 5 kit from Molecular Devices (# R8186, Sunnyvale, CA, USA) on a FlexStation 3 Microplate Reader (Molecular Devices, Sunnyvale, CA, USA). […] Probenecid (cat # 50027; Biotium) which helps to prevent expulsion of calcium indicator from the cells was added to a final concentration of 1.25 mM. 90 µL of the dye were loaded into each well of the plate and incubated for 1 h before reading in the FlexStation 3 at 37 °C. Fluorescence was recorded every 2 s (λ excitation = 485 nm, λ emission = 525 nm) for 5 min. After 1 min of baseline recording, 20 µL of the drug, dissolved in HBSS with 1% dimethyl sulfoxide (DMSO) (cat # D2650; Sigma-Aldrich, Melbourne, Australia) was added (final DMSO concentration was 0.1% in well).
We initially determined the effect of PMA, another phorbol ester that is a protein kinase C activator ([Jiang & Fleet, 2012]) on HEK-293 TRPV1 expressing cells.
(A) Response of HEK-293 TRPV1 expressing cells for PMA at various concentration. […] Drugs were added for the duration of the bar; (D) The effects of PUFAs after potentiation of TRPV1 by PMA. […] Changes in [Ca]i are expressed as percentage of the pre-drug baseline, with the response to PMA alone at 5 min subtracted. The black circles represent the response of PUFAs without PMA pretreatment while the pink circles represent the response of PUFAs after PMA potentiation.

HEK-293 EV cells = test: Calcium 5 dye [Ca]i assay in HEK-293 empty vector (EV) cells; format: cell-based, human; details: 10 µM; HEK-293 EV cells; percentage of predrug baseline
Procedure, shortened: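 Tetracycline at 1 µg ml^−1 was added 4 h before testing; cells were loaded with Calcium 5 dye for 1 h and read at 37 °C, with drug added after 1 min baseline (final 0.1% DMSO). The response was the % change from the 60 s baseline after solvent subtraction, and EC50/Emax came from a three-parameter logistic fit, reported as pEC50.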

human TRPV1 [2] = target: T1, human TRPV1; test: Pre-incubation with PUFAs or capsazepine, then capsaicin (10 nM) response in HEK-293 TRPV1 cells; format: cell-based; details: for Effect of pre-treatment on the capsaicin response: 10 µM, 5 min exposure, then capsaicin 10 nM; for Post-capsaicin: response to subsequent capsaicin addition, individual experiments: capsaicin 10 nM after 5 min drug 10 µM; for Post-capsaicin: response to subsequent capsaicin addition, individual experiments / Pre-capsaicin: response to first drug, individual experiments: TRPV1 cells; for Pre-capsaicin: response to first drug, individual experiments: drug 10 µM for 5 min
Protocol: as §1, with “well). […]” for “well).”

human TRPA1 = target: T2, human TRPA1 (Homo sapiens, UniProt O75762); test: Calcium 5 dye [Ca]i assay in HEK-293 Flp-In T-REx cells expressing TRPA1 (agonist response); format: cell-based; details: for Elevation of [Ca]i in HEK-293 TRPA1 cells compared with HEK-293 EV cells: 10 µM (cinnamaldehyde 300 µM); for Change of Ca5 fluorescence, Mean ± SEM, TRPA1 (10 µM): HEK-293 TRPA1 cells, percentage of predrug baseline; for TRPA1 activation at the highest concentration tested: 30 µM; for Emax at 30 µM: HEK293, read-out: Emax ± SEM % TRPA1 (30 µM); for [Ca]i response (change in fluorescence), individual replicates: sheet Figure 4
T2 construct: Life Technologies (cells); host or cells: Flp-In T-REx HEK-293
Procedure, shortened: (§2)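 Tetracycline-induced (1 µg ml^−1, 4 h) HEK-293 T-REx cells loaded with Calcium 5 dye plus 1.25 mM probenecid for 1 h; agonist added after 1 min baseline (0.1% DMSO final), fluorescence (485/525 nm) read every 2 s for 5 min at 37 °C. Response as % change from baseline, solvent-subtracted; EC50/Emax from three-parameter logistic fit, given as pEC50.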

human TRPV1 [3] = target: T1, human TRPV1; test: Calcium 5 dye [Ca]i assay in HEK-293 Flp-In T-REx cells expressing TRPV1 (agonist response); format: cell-based; details: for Elevation of [Ca]i in HEK-293 TRPV1 cells compared with HEK-293 EV cells / Change of Ca5 fluorescence, Mean ± SEM, TRPV1 (10 µM): 10 µM; for Change of Ca5 fluorescence, Mean ± SEM, TRPV1 (10 µM): HEK-293 TRPV1 cells, percentage of predrug baseline; for Change in Ca5 fluorescence, individual experiments (CRC raw data): TRPV1 cells
Procedure, shortened: as §2

T1 sequence (Q8NER1 whole entry): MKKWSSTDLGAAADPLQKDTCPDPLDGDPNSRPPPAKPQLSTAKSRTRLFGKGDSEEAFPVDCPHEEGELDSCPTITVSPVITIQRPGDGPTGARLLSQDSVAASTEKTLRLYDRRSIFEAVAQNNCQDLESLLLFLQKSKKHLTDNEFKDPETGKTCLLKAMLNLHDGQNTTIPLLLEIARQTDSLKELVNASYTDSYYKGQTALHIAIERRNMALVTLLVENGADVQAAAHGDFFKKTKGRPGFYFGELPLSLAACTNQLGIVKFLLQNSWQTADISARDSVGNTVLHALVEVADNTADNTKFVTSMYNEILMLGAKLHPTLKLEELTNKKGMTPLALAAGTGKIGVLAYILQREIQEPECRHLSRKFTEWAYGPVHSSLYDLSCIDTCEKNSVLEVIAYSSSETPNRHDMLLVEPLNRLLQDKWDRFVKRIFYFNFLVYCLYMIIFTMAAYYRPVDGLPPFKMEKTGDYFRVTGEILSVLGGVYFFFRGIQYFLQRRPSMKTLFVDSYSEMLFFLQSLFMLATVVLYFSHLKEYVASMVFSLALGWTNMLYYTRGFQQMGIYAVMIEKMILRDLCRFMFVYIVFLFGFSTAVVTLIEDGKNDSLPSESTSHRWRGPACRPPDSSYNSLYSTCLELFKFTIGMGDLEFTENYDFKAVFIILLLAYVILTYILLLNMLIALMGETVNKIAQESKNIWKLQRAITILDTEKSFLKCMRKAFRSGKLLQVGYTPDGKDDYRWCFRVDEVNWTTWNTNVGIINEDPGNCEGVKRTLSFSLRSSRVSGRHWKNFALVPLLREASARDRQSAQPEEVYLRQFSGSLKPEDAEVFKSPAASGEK
T2 sequence (O75762 whole entry): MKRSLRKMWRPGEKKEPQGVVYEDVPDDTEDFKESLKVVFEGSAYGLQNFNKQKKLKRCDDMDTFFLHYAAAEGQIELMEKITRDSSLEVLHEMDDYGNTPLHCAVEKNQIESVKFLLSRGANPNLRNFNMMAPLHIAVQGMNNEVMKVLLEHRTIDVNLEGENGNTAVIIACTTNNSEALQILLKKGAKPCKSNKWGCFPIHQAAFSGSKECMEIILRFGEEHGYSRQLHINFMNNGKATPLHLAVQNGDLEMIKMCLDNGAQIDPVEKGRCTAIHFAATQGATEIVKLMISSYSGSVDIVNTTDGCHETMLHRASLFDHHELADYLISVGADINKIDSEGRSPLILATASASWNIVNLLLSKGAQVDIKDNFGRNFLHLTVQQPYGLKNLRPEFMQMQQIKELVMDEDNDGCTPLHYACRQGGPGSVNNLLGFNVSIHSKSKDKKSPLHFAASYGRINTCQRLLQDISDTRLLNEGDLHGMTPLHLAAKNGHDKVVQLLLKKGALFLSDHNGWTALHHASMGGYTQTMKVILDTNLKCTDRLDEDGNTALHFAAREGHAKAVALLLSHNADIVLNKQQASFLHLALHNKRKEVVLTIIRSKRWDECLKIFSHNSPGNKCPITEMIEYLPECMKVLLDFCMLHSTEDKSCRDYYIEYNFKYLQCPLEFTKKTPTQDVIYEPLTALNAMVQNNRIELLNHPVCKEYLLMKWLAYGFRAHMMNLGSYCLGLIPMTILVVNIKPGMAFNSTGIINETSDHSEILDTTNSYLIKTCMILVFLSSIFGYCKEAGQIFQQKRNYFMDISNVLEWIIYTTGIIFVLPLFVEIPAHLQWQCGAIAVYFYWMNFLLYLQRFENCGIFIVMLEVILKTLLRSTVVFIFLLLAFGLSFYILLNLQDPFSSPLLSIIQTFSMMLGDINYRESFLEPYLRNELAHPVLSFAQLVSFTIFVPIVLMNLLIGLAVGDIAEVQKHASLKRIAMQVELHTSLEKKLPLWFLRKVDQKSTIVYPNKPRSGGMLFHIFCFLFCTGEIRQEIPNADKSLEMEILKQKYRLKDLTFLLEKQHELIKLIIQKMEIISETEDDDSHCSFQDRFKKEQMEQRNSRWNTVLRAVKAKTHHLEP

Effect of pre-treatment on the capsaicin response (human TRPV1 [2]): did not affect | Elevation of [Ca]i in HEK-293 TRPA1 cells compared with HEK-293 EV cells (human TRPA1): did not produce a change | Change of Ca5 fluorescence, Mean ± SEM, TRPA1 (10 µM) (human TRPA1): 129 ± 81% | TRPA1 activation at the highest concentration tested (human TRPA1): activated TRPA1 | Emax at 30 µM (human TRPA1; highest tested concentration (30 µM) or derived from concentration-response curves (cinnamaldehyde)): 408 ± 54% | [Ca]i response (change in fluorescence), individual replicates (human TRPA1; concentration -5.52288 (log)): 5.528 and 1.551 and 4.973 and 2.123 | [Ca]i response (change in fluorescence), individual replicates (human TRPA1; concentration -6.52288 (log)): 7.112 and 0.3749 and 2.033 and 5.1389 | [Ca]i response (change in fluorescence), individual replicates (human TRPA1; concentration -7 (log)): 8.809 and 1.203 and 5.563 and 5.621 | Elevation of [Ca]i in HEK-293 TRPV1 cells compared with HEK-293 EV cells (human TRPV1 [3]): did not produce a notable change | Change of Ca5 fluorescence, Mean ± SEM, TRPV1 (10 µM) (human TRPV1 [3]): 11 ± 2% | Emax at 30 µM (human TRPV1 [3]; HEK293, read-out: Emax ± SEM % TRPV1 (30 µM)): 29 ± 0.8% | Change in Ca5 fluorescence, individual experiments (CRC raw data) (human TRPV1 [3]; log concentration -5.52288 (M)): 5.597 and 6.862 and 1.798 and 7.576 | Change in Ca5 fluorescence, individual experiments (CRC raw data) (human TRPV1 [3]; log concentration -6.52288 (M)): 0.111 and 3.665 and 0.7828 and 7.557 | Change in Ca5 fluorescence, individual experiments (CRC raw data) (human TRPV1 [3]; log concentration -7 (M)): 8.793 and 7.902 and 1.12 and 9.145
Compound: CC/C=C\C/C=C\C/C=C\C/C=C\C/C=C\C/C=C\CCC(=O)O [DHA, docosahexaenoic acid]
TRPV1 response after exposure to PMA (human TRPV1 [1]; PMA 100 nM, 5 min pretreatment): only observed when a phorbol ester was present | Drugs post-PMA, individual experiments (human TRPV1 [1]; PUFA 10 µM after PMA 100 nM for 5 min, response to PMA alone subtracted): 50.0906 and 48.3811 and 19.3352 and 66.6517 and 32.7216 and 44.0204 and 2.991 | Drugs alone, individual experiments (human TRPV1 [1]; PUFA 10 µM without PMA pretreatment, TRPV1 cells): 3.985 and 5.867 and 0 and 3.833 and 0.4866 and -0.286 and 0.9124 and 2.207 | Change of Ca5 fluorescence, Mean ± SEM, EV (10 µM) (HEK-293 EV cells): 11 ± 2% | Post-capsaicin: response to subsequent capsaicin addition, individual experiments (human TRPV1 [2]): 262.478 and 230.552 and 119.965 and 325.766 and 236.554 and 370.087 | Pre-capsaicin: response to first drug, individual experiments (human TRPV1 [2]): 15.3316 and 14.4172 and 9.221 and 4.601 and 11.1415 and 4.871 | [Ca]i response (change in fluorescence), individual replicates (human TRPA1; concentration -4.52288 (log)): 600.618 and 528.86 and 310.75 and 311.859 and 419.884 and 278.355 | [Ca]i response (change in fluorescence), individual replicates (human TRPA1; concentration -5 (log)): 508.031 and 185.633 and 12.6409 and 8.196 and 18.5259 and 39.1466 | [Ca]i response (change in fluorescence), individual replicates (human TRPA1; concentration -6 (log)): 3.48 and 2.006 and 3.985 and 2.738 and 3.1287 and 4.255 | Change in Ca5 fluorescence, individual experiments (CRC raw data) (human TRPV1 [3]; log concentration -4.52288 (M)): 30.4293 and 29.6434 and 28.2029 and 25.9718 and 28.1927 and 31.4702 | Change in Ca5 fluorescence, individual experiments (CRC raw data) (human TRPV1 [3]; log concentration -5 (M)): 15.398 and 14.8517 and 2.207 and 13.9869 and 10.4035 and 11.2548 | Change in Ca5 fluorescence, individual experiments (CRC raw data) (human TRPV1 [3]; log concentration -6 (M)): 1.539 and 8.081 and 1.374 and 8.45 and 6.148 and 5.676

Compound: CCCCC/C=C\C/C=C\C/C=C\CCCCC(=O)O [γ-LA, γ-linolenic acid]
Change of Ca5 fluorescence, Mean ± SEM, EV (10 µM) (HEK-293 EV cells): 9 ± 2% | Effect of pre-treatment on the capsaicin response (human TRPV1 [2]): did not affect | Post-capsaicin: response to subsequent capsaicin addition, individual experiments (human TRPV1 [2]; listed as GLA): 270.139 and 251.245 and 119.532 and 316.43 and 265.849 and 338.308 | Pre-capsaicin: response to first drug, individual experiments (human TRPV1 [2]; listed as GLA): 11.5745 and 14.3439 and 14.381 and 3.4398 and 10.3554 and 15.8417 | Elevation of [Ca]i in HEK-293 TRPA1 cells compared with HEK-293 EV cells (human TRPA1): did not produce a change | Change of Ca5 fluorescence, Mean ± SEM, TRPA1 (10 µM) (human TRPA1): 112 ± 61% | TRPA1 activation at the highest concentration tested (human TRPA1): activated TRPA1 | Emax at 30 µM (human TRPA1): 255 ± 73% | [Ca]i response (change in fluorescence), individual replicates (human TRPA1; concentration -4.52288 (log), listed as GLA): 481.429 and 335.153 and 71.3202 and 67.3187 and 162.48 and 414.065 | [Ca]i response (change in fluorescence), individual replicates (human TRPA1; concentration -5 (log), listed as GLA): 268.343 and 23.3711 and 10.7965 and 8.59 and 23.2369 and 338.225 | [Ca]i response (change in fluorescence), individual replicates (human TRPA1; concentration -5.52288 (log), listed as GLA): 2.578 and 5.507 and 0.9073 and 7.069 and 268.915 | [Ca]i response (change in fluorescence), individual replicates (human TRPA1; concentration -6 (log), listed as GLA): 0.8222 and 0.07304 and 2.068 and 3.637 and 4.16 and 7.0167 | [Ca]i response (change in fluorescence), individual replicates (human TRPA1; concentration -6.52288 (log), listed as GLA): 0.1101 and 1.014 and 7.308 and 0.3513 and 4.285 and 9.421 | [Ca]i response (change in fluorescence), individual replicates (human TRPA1; concentration -7 (log), listed as GLA): 0.1516 and -0.4942 and 5.21 and 2.462 and 4.3545 and 5.724 | Elevation of [Ca]i in HEK-293 TRPV1 cells compared with HEK-293 EV cells (human TRPV1 [3]): did not produce a notable change | Change of Ca5 fluorescence, Mean ± SEM, TRPV1 (10 µM) (human TRPV1 [3]): 10 ± 1% | Change in Ca5 fluorescence, individual experiments (CRC raw data) (human TRPV1 [3]; log concentration -4.52288 (M), listed as GLA): 27.0827 and 92.1911 and 21.8805 and 27.2504 and 40.8812 and 31.4387 | Change in Ca5 fluorescence, individual experiments (CRC raw data) (human TRPV1 [3]; log concentration -5 (M), listed as GLA): 15.417 and 9.771 and 8.536 and 10.7081 and 5.47 and 8.301 | Change in Ca5 fluorescence, individual experiments (CRC raw data) (human TRPV1 [3]; log concentration -5.52288 (M), listed as GLA): 2.0403 and 1.257 and 4.6526 and 4.706 and 2.248 and 2.361 | Change in Ca5 fluorescence, individual experiments (CRC raw data) (human TRPV1 [3]; log concentration -6 (M), listed as GLA): 3.899 and 2.392 and 3.26 and 4.994 and 2.614 and 2.892 | Change in Ca5 fluorescence, individual experiments (CRC raw data) (human TRPV1 [3]; log concentration -6.52288 (M), listed as GLA): -0.6308 and 4.773 and 3.415 and 10.3597 and 1.966 and 2.796 | Change in Ca5 fluorescence, individual experiments (CRC raw data) (human TRPV1 [3]; log concentration -7 (M), listed as GLA): 0.359 and 3.081 and 7.321 and 1.04 and 2.553
